Results reported in ChEMBL document CHEMBL3045684, “Compatibility of traditional and novel acaricides with bumblebees (Bombus terrestris): a first laboratory assessment of toxicity and sublethal effects” (Pest Manag Sci, 2010).
Active and inactive are the calls of the source. No cut-off for these calls is given here.

Legend:
Bombus terrestris [1] = experiment: Toxicity against worker Bombus terrestris (bumblebee) assessed as mortality at 55 mg a.i./l, po administered through pollen for 11 weeks measured everyday for 3 days followed by once a week for 11 weeks; type: functional, organism-based
Bombus terrestris [2] = experiment: Toxicity against worker Bombus terrestris (bumblebee) assessed as mortality at 55 mg a.i./l, po administered through sugar water measured after 9 to 11 weeks; type: functional, organism-based
Bombus terrestris [3] = experiment: Toxicity against worker Bombus terrestris (bumblebee) assessed as mortality at 55 mg a.i./l, po administered through sugar water for 11 weeks measured everyday for 3 days followed by once a week for 11 weeks; type: functional
Bombus terrestris [4] = experiment: Contact toxicity against worker Bombus terrestris (bumblebee) assessed as mortality at 55 mg a.i./l applied on the dorsal thorax for 11 weeks measured everyday for 3 days followed by once a week for 11 weeks; type: functional
Bombus terrestris [5] = experiment: Toxicity against po dosed worker Bombus terrestris (bumblebee) administered through sugar water for 11 weeks measured everyday for 3 days followed by once a week for 11 weeks; type: functional
Bombus terrestris [6] = experiment: Toxicity against worker Bombus terrestris (bumblebee) assessed as reduction in reproduction at 55 mg a.i./l, po administered through pollen for 11 weeks measured once a week for 11 weeks; type: functional; design: scale not given: the % may be the effect or the level left
Bombus terrestris [7] = experiment: Toxicity against worker Bombus terrestris (bumblebee) assessed as reduction in reproduction at 55 mg a.i./l, po administered through sugar water for 11 weeks measured once a week for 11 weeks relative to control; type: functional, organism-based
Bombus terrestris [8] = experiment: Contact toxicity against worker Bombus terrestris (bumblebee) assessed as reduction in reproduction at 55 mg a.i./l applied on the dorsal thorax for 11 weeks measured once a week for 11 weeks relative to control; type: functional, organism-based
Bombus terrestris [9] = experiment: Toxicity against worker Bombus terrestris (bumblebee) assessed as mortality at 3 mg a.i./l, po administered through sugar water for 11 weeks measured everyday for 3 days followed by once a week for 11 weeks; type: functional
Bombus terrestris [10] = experiment: Toxicity against worker Bombus terrestris (bumblebee) assessed as mortality at 3 mg a.i./l, po administered through pollen for 11 weeks measured everyday for 3 days followed by once a week for 11 weeks; type: functional
Bombus terrestris [11] = experiment: Contact toxicity against worker Bombus terrestris (bumblebee) assessed as mortality at 3 mg a.i./l applied on the dorsal thorax for 11 weeks measured everyday for 3 days followed by once a week for 11 weeks; type: functional
Bombus terrestris [12] = experiment: Toxicity against worker Bombus terrestris (bumblebee) assessed as reduction in reproduction at 3 mg a.i./l, po administered through pollen for 11 weeks measured once a week for 11 weeks; type: functional; design: scale not given: the % may be the effect or the level left
Bombus terrestris [13] = experiment: Toxicity against worker Bombus terrestris (bumblebee) assessed as reduction in reproduction at 3 mg a.i./l, po administered through sugar water for 11 weeks measured once a week for 11 weeks relative to control; type: functional, organism-based
Bombus terrestris [14] = experiment: Contact toxicity against worker Bombus terrestris (bumblebee) assessed as reduction in reproduction at 3 mg a.i./l applied on the dorsal thorax for 11 weeks measured once a week for 11 weeks relative to control; type: functional, organism-based
Bombus terrestris [15] = experiment: Toxicity against worker Bombus terrestris (bumblebee) assessed as mortality at 18 mg a.i./l, po administered through sugar water measured after 11 weeks; type: functional; settings: 1848 h
Bombus terrestris [16] = experiment: Toxicity against worker Bombus terrestris (bumblebee) assessed as mortality at 18 mg a.i./l, po administered through sugar water measured after 7 weeks; type: functional; settings: 1176 h
Bombus terrestris [17] = experiment: Toxicity against worker Bombus terrestris (bumblebee) assessed as mortality at 18 mg a.i./l, po administered through sugar water measured after 1 week; type: functional; settings: 168 h
Bombus terrestris [18] = experiment: Contact toxicity against worker Bombus terrestris (bumblebee) assessed as mortality at 18 mg a.i./l applied on the dorsal thorax measured after 3 to 4 weeks; type: functional, organism-based
Bombus terrestris [19] = experiment: Toxicity against worker Bombus terrestris (bumblebee) assessed as mortality at 18 mg a.i./l, po administered through pollen for 11 weeks measured everyday for 3 days followed by once a week for 11 weeks; type: functional
Bombus terrestris [20] = experiment: Toxicity against worker Bombus terrestris (bumblebee) assessed as mortality at 18 mg a.i./l, po administered through sugar water measured after 9 weeks; type: functional; settings: 1512 h
Bombus terrestris [21] = experiment: Toxicity against worker Bombus terrestris (bumblebee) assessed as mortality at 18 mg a.i./l, po administered through sugar water for 11 weeks measured everyday for 3 days followed by once a week for 11 weeks; type: functional
Bombus terrestris [22] = experiment: Contact toxicity against worker Bombus terrestris (bumblebee) assessed as mortality at 18 mg a.i./l applied on the dorsal thorax for 11 weeks measured everyday for 3 days followed by once a week for 11 weeks; type: functional
Aphidius colemani = experiment: Contact toxicity against Aphidius colemani assessed as mortality at 8.5 mg a.i./l; type: functional
Apis mellifera [23] = experiment: Toxicity against po dosed Apis mellifera (honey bee) assessed per bee after 24 hr; type: functional
Apis mellifera [24] = experiment: Contact toxicity against Apis mellifera (honey bee) assessed per bee after 24 hr; type: functional
Bombus terrestris [25] = experiment: Toxicity against worker Bombus terrestris (bumblebee) assessed as mortality at 18 mg a.i./l, po administered through pollen measured after 7 weeks; type: functional; settings: 1176 h
Bombus terrestris [26] = experiment: Toxicity against worker Bombus terrestris (bumblebee) assessed as mortality at 18 mg a.i./l, po administered through pollen measured after 3 weeks; type: functional; settings: 504 h
Bombus terrestris [27] = experiment: Toxicity against worker Bombus terrestris (bumblebee) assessed as reduction in reproduction at 18 mg a.i./l, po administered through pollen for 11 weeks measured once a week for 11 weeks; type: functional, organism-based
Bombus terrestris [28] = experiment: Contact toxicity against worker Bombus terrestris (bumblebee) assessed as reduction in reproduction at 18 mg a.i./l applied on the dorsal thorax for 11 weeks measured once a week for 11 weeks relative to control; type: functional, organism-based

In the case of `CCOc1cc(C(C)(C)C)ccc1C1COC(c2c(F)cccc2F)=N1` (configuration not stated) [ETOXAZOLE], the Activity (Bombus terrestris [1]) is reported as “inactive”, the Activity (Bombus terrestris [2]) is reported as “Active” and the mortality at 55 µg/mL (Bombus terrestris [3]) is reported as 95%. For the same compound, the mortality at 55 µg/mL (Bombus terrestris [4]) was < 25%, the LC50 (Bombus terrestris [5]) was 4.4 mgAi/L and the NOAEL (Bombus terrestris [5]) was 0.55 mgAi/L. For the same compound, the Activity (Bombus terrestris [6]) was 25%, the Activity (Bombus terrestris [7]) was “Active” and the Activity (Bombus terrestris [8]) was “Active”.
With `C[C@@H]1[C@@H](c2ccc(Cl)cc2)SC(=O)N1C(=O)NC1CCCCC1` (relative stereo) [HEXYTHIAZOX] the mortality at 3 µg/mL (Bombus terrestris [9]) was < 25%, the mortality at 3 µg/mL (Bombus terrestris [10]) was 90% and the mortality at 3 µg/mL (Bombus terrestris [11]) was < 25%. The Activity (Bombus terrestris [12]) was 50%, the Activity (Bombus terrestris [13]) was “Active” and the Activity (Bombus terrestris [14]) was “inactive”.
In the case of `CC[C@H](C)[C@H]1O[C@]2(C=C[C@@H]1C)C[C@@H]1C[C@@H](C/C=C(\C)[C@@H](O[C@H]3C[C@H](OC)[C@@H](O[C@H]4C[C@H](OC)[C@@H](O)[C@H](C)O4)[C@H](C)O3)[C@@H](C)/C=C/C=C3\CO[C@@H]4[C@H](O)C(C)=C[C@@H](C(=O)O1)[C@]34O)O2.CO[C@H]1C[C@H](O[C@H]2[C@H](C)O[C@@H](O[C@@H]3/C(C)=C/C[C@@H]4C[C@@H](C[C@]5(C=C[C@H](C)[C@@H](C(C)C)O5)O4)OC(=O)[C@@H]4C=C(C)[C@@H](O)[C@H]5OC/C(=C\C=C\[C@@H]3C)[C@]54O)C[C@@H]2OC)O[C@@H](C)[C@@H]1O` [ABAMECTIN], the mortality at 18 µg/mL (Bombus terrestris [15]) is reported as 100%, the mortality at 18 µg/mL (Bombus terrestris [16]) is reported as 40% and the mortality at 18 µg/mL (Bombus terrestris [17]) is reported as 20%. The Activity (Bombus terrestris [18]) was “Active”, the mortality at 18 µg/mL (Bombus terrestris [19]) was 90% and the mortality at 18 µg/mL (Bombus terrestris [20]) was 80%. It also gave a mortality at 18 µg/mL (Bombus terrestris [21]) of 95%, a mortality at 18 µg/mL (Bombus terrestris [22]) of 100% and an LC50 (Bombus terrestris [5]) of 1.17 mgAi/L. The NOAEL (Bombus terrestris [5]) was 0.18 mgAi/L, the mortality at 8.5 µg/mL (Aphidius colemani) was 100% and the LD50 (Apis mellifera [23]) was 0.009 µg. For the same compound, the LD50 (Apis mellifera [24]) was 0.002 µg, the mortality at 18 µg/mL (Bombus terrestris [25]) was 60% and the mortality at 18 µg/mL (Bombus terrestris [26]) was 40%. For the same compound, the Activity (Bombus terrestris [27]) was “Active” and the Activity (Bombus terrestris [28]) was “Active”.
